Laboratory results reported in US20230085307A1, “PYRIDAZINONE COMPOUND AND HERBICIDE” (NISSAN CHEMICAL CORPORATION, priority 2019, published 2023).

Legend:
Italian ryegrass = test: Test Example 5: herbicidal effect by foliage application, plastic box (Table 20, symbol K); assay type: in vivo, Italian ryegrass (Lolium multiflorum); conditions: foliage application
In short: (§1)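 Sow seeds spot-wise in sterilized diluvial soil; cover with ~1.5 cm soil. Grow 14 days in greenhouse, 25° C. to 30° C. Spray foliage with emulsion diluted to predetermined amount. Rate effect after 3 weeks.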

barnyard grass [1] = test: Test Example 5: herbicidal effect by foliage application, plastic box (Table 20, symbol H); assay type: in vivo, barnyard grass (Echinochloa crus-galli); conditions: foliage application
In short: as §1

wild oat = test: Test Example 5: herbicidal effect by foliage application, plastic box (Table 20, symbol I); assay type: in vivo, wild oat (Avena fatua); conditions: foliage application
In short: as §1

barnyard grass [2] = test: Test Example 3: herbicidal effect by foliage application, Wagner pot (Table 18, symbol H); assay type: in vivo, barnyard grass (Echinochloa crus-galli); conditions: for herbicidal effect on H (barnyard grass), rating 0-5: 320 g/ha; for herbicidal effect on H: barnyard grass: amount of applied herbicide 320 g/ha
In short: (§2)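 Plants were sown in alluvial soil held under 0.1–0.5 cm standing water and grown 14 days in a greenhouse at 25–30 °C. An emulsifiable formulation, water-diluted to the set dose, was then sprayed onto the foliage, and effects were scored three weeks later using previously defined criteria.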

green foxtail = test: Test Example 5: herbicidal effect by foliage application, plastic box (Table 20, symbol G); assay type: in vivo, green foxtail (Setaria viridis); conditions: foliage application
In short: as §1

chickweed = test: Test Example 5: herbicidal effect by foliage application, plastic box (Table 20, symbol P); assay type: in vivo, common chickweed (Stellaria media); conditions: foliage application
In short: as §1

southern crabgrass = test: Test Example 5: herbicidal effect by foliage application, plastic box (Table 20, symbol F); assay type: in vivo, southern crabgrass (Digitaria ciliaris); conditions: foliage application
In short: as §1

Chinese sprangletop = test: Test Example 3: herbicidal effect by foliage application, Wagner pot (Table 18, symbol D); assay type: in vivo, chinese sprangletop (Leptochloa chinensis); conditions: for herbicidal effect on D (Chinese sprangletop), rating 0-5: 320 g/ha; for herbicidal effect on D: Chinese sprangletop: amount of applied herbicide 320 g/ha
In short: as §2

redroot pigweed = test: Test Example 5: herbicidal effect by foliage application, plastic box (Table 20, symbol N); assay type: in vivo, redroot pigweed (Amaranthus retroflexus); conditions: foliage application
In short: as §1

persian speedwell = test: Test Example 5: herbicidal effect by foliage application, plastic box (Table 20, symbol R); assay type: in vivo, Persian speedwell (Veronica persica); conditions: foliage application
In short: as §1

lambsquarters = test: Test Example 5: herbicidal effect by foliage application, plastic box (Table 20, symbol O); assay type: in vivo, lambsquarters (Chenopodium album); conditions: foliage application
In short: as §1

blackgrass = test: Test Example 5: herbicidal effect by foliage application, plastic box (Table 20, symbol J); assay type: in vivo, blackgrass (Alopecurus myosuroides); conditions: foliage application
In short: as §1

windgrass = test: Test Example 5: herbicidal effect by foliage application, plastic box (Table 20, symbol L); assay type: in vivo, windgrass (Apera spica-venti); conditions: foliage application
In short: as §1

velvetleaf = test: Test Example 5: herbicidal effect by foliage application, plastic box (Table 20, symbol M); assay type: in vivo, velvetleaf (Abutilon theophrasti); conditions: foliage application
In short: as §1

rice flat sedge = test: Test Example 3: herbicidal effect by foliage application, Wagner pot (Table 18, symbol E); assay type: in vivo, rice flat sedge (Cyperus iria); conditions: for herbicidal effect on E (rice flat sedge), rating 0-5: 320 g/ha; for herbicidal effect on E: rice flat sedge: amount of applied herbicide 320 g/ha
In short: as §2

[3] = 320 g/ha, three weeks after application
[4] = AAH 320 g/ha, three weeks after application
[5] = 320 g/ha, evaluated three weeks after application
[6] = AAH 320 g/ha, evaluated three weeks after application

| Compound | herbicidal effect on H (barnyard grass), rating 0-5 (barnyard grass [2]) | herbicidal effect on D (Chinese sprangletop), rating 0-5 (Chinese sprangletop) | herbicidal effect on E (rice flat sedge), rating 0-5 (rice flat sedge) | K: Italian ryegrass, herbicidal effect (Italian ryegrass; [4]) | H: barnyard grass, herbicidal effect (barnyard grass [1]; [4]) | I: wild oat, herbicidal effect (wild oat; [4]) | G: green foxtail, herbicidal effect (green foxtail; [4]) | P: chickweed, herbicidal effect (chickweed; [4]) | F: southern crabgrass, herbicidal effect (southern crabgrass; [4]) | N: redroot pigweed, herbicidal effect (redroot pigweed; [4]) | R: persian speedwell, herbicidal effect (persian speedwell; [4]) | O: lambsquarters, herbicidal effect (lambsquarters; [4]) | J: blackgrass, herbicidal effect (blackgrass; [4]) | L: windgrass, herbicidal effect (windgrass; [4]) | M: velvetleaf, herbicidal effect (velvetleaf; [4]) | herbicidal effect on H: barnyard grass (barnyard grass [2]) | herbicidal effect on D: Chinese sprangletop (Chinese sprangletop) | herbicidal effect on E: rice flat sedge (rice flat sedge) | other results |
| --- | --- | --- | --- | --- | --- | --- | --- | --- | --- | --- | --- | --- | --- | --- | --- | --- | --- | --- | --- |
| CCCC(=O)Oc1c(C)nn(C)c(=O)c1-c1c(-c2ccccc2SC)sc2ccccc12 [1-035] | 3 (Herbicidal rate of 40% or more and less than 70%) | 0 (Herbicidal rate of 5% or less (almost no effect)) | 4 (Herbicidal rate of 70% or more and less than 90%) | – | – | – | – | – | – | – | – | – | – | – | – | – | – | – | herbicidal effect grade, K: Italian ryegrass (Italian ryegrass; [3]): 0 (Herbicidal rate of 5% or less (almost no effect)); herbicidal effect grade, H: barnyard grass (barnyard grass [1]; [3]): 0 (Herbicidal rate of 5% or less (almost no effect)); herbicidal effect grade, I: wild oat (wild oat; [3]): 3 (Herbicidal rate of 40% or more and less than 70%); herbicidal effect grade, G: green foxtail (green foxtail; [3]): 0 (Herbicidal rate of 5% or less (almost no effect)); herbicidal effect grade, P: chickweed (chickweed; [3]): 1 (Herbicidal rate of 5% or more and less than 20%); herbicidal effect grade, F: southern crabgrass (southern crabgrass; [3]): 0 (Herbicidal rate of 5% or less (almost no effect)); herbicidal effect grade, N: redroot pigweed (redroot pigweed; [3]): 0 (Herbicidal rate of 5% or less (almost no effect)); herbicidal effect grade, R: persian speedwell (persian speedwell; [3]): 0 (Herbicidal rate of 5% or less (almost no effect)); herbicidal effect grade, O: lambsquarters (lambsquarters; [3]): 0 (Herbicidal rate of 5% or less (almost no effect)); herbicidal effect grade, J: blackgrass (blackgrass; [3]): 0 (Herbicidal rate of 5% or less (almost no effect)); herbicidal effect grade, L: windgrass (windgrass; [3]): 0 (Herbicidal rate of 5% or less (almost no effect)); herbicidal effect grade, M: velvetleaf (velvetleaf; [3]): 0 (Herbicidal rate of 5% or less (almost no effect)) |
| COc1nn(C)c(=O)c(-c2c(-c3cccc(OC(F)(F)F)c3)sc3ccccc23)c1O [1-160] | 0 (Herbicidal rate of 5% or less (almost no effect)) | 1 (Herbicidal rate of 5% or more and less than 20%) | 4 (Herbicidal rate of 70% or more and less than 90%) | 1 (Herbicidal rate of 5% or more and less than 20%) | 1 (Herbicidal rate of 5% or more and less than 20%) | 0 (Herbicidal rate of 5% or less (almost no effect)) | 1 (Herbicidal rate of 5% or more and less than 20%) | 4 (Herbicidal rate of 70% or more and less than 90%) | 0 (Herbicidal rate of 5% or less (almost no effect)) | 5 (Herbicidal rate of 90% or more (almost completely withered)) | 0 (Herbicidal rate of 5% or less (almost no effect)) | 1 (Herbicidal rate of 5% or more and less than 20%) | 0 (Herbicidal rate of 5% or less (almost no effect)) | 0 (Herbicidal rate of 5% or less (almost no effect)) | 1 (Herbicidal rate of 5% or more and less than 20%) | – | – | – | – |
| CCCC(=O)Oc1c(OC)nn(C)c(=O)c1-c1c(-c2cccc(OC(F)(F)F)c2)sc2ccccc12 [1-161] | 1 (Herbicidal rate of 5% or more and less than 20%) | 0 (Herbicidal rate of 5% or less (almost no effect)) | 3 (Herbicidal rate of 40% or more and less than 70%) | 0 (Herbicidal rate of 5% or less (almost no effect)) | 0 (Herbicidal rate of 5% or less (almost no effect)) | 0 (Herbicidal rate of 5% or less (almost no effect)) | 0 (Herbicidal rate of 5% or less (almost no effect)) | 0 (Herbicidal rate of 5% or less (almost no effect)) | 0 (Herbicidal rate of 5% or less (almost no effect)) | 3 (Herbicidal rate of 40% or more and less than 70%) | 0 (Herbicidal rate of 5% or less (almost no effect)) | 0 (Herbicidal rate of 5% or less (almost no effect)) | 0 (Herbicidal rate of 5% or less (almost no effect)) | 0 (Herbicidal rate of 5% or less (almost no effect)) | 1 (Herbicidal rate of 5% or more and less than 20%) | – | – | – | – |
| Cc1nn(C)c(=O)c(-c2c(-c3cccc(OC(F)F)c3)sc3ccc(F)cc23)c1O [2-234] | – | – | – | – | – | – | – | – | – | – | – | – | – | – | – | 3 (Herbicidal rate of 40% or more and less than 70%) | 0 (Herbicidal rate of 5% or less (almost no effect)) | 0 (Herbicidal rate of 5% or less (almost no effect)) | herbicidal effect on K: Italian ryegrass (criteria 0-5) (Italian ryegrass; [5]): 0 (Herbicidal rate of 5% or less (almost no effect)); herbicidal effect on H: barnyard grass (criteria 0-5) (barnyard grass [1]; [5]): 0 (Herbicidal rate of 5% or less (almost no effect)); herbicidal effect on I: wild oat (criteria 0-5) (wild oat; [5]): 0 (Herbicidal rate of 5% or less (almost no effect)); herbicidal effect on G: green foxtail (criteria 0-5) (green foxtail; [5]): 0 (Herbicidal rate of 5% or less (almost no effect)); herbicidal effect on P: chickweed (criteria 0-5) (chickweed; [5]): 5 (Herbicidal rate of 90% or more (almost completely withered)); herbicidal effect on F: southern crabgrass (criteria 0-5) (southern crabgrass; [5]): 0 (Herbicidal rate of 5% or less (almost no effect)); herbicidal effect on N: redroot pigweed (criteria 0-5) (redroot pigweed; [5]): 4 (Herbicidal rate of 70% or more and less than 90%); herbicidal effect on R: persian speedwell (criteria 0-5) (persian speedwell; [5]): 5 (Herbicidal rate of 90% or more (almost completely withered)); herbicidal effect on O: lambsquarters (criteria 0-5) (lambsquarters; [5]): 2 (Herbicidal rate of 20% or more and less than 40%); herbicidal effect on J: blackgrass (criteria 0-5) (blackgrass; [5]): 0 (Herbicidal rate of 5% or less (almost no effect)); herbicidal effect on L: windgrass (criteria 0-5) (windgrass; [5]): 0 (Herbicidal rate of 5% or less (almost no effect)); herbicidal effect on M: velvetleaf (criteria 0-5) (velvetleaf; [5]): 0 (Herbicidal rate of 5% or less (almost no effect)) |
| CC(=O)COc1c(C)nn(C)c(=O)c1-c1c(-c2ccc(OC(F)F)cc2)sc2ccc(F)cc12 [2-304] | – | – | – | – | – | – | – | – | – | – | – | – | – | – | – | 3 (Herbicidal rate of 40% or more and less than 70%) | 3 (Herbicidal rate of 40% or more and less than 70%) | 3 (Herbicidal rate of 40% or more and less than 70%) | K: Italian ryegrass, herbicidal effect (criteria 0-5) (Italian ryegrass; [6]): 0 (Herbicidal rate of 5% or less (almost no effect)); H: barnyard grass, herbicidal effect (criteria 0-5) (barnyard grass [1]; [6]): 0 (Herbicidal rate of 5% or less (almost no effect)); I: wild oat, herbicidal effect (criteria 0-5) (wild oat; [6]): 0 (Herbicidal rate of 5% or less (almost no effect)); G: green foxtail, herbicidal effect (criteria 0-5) (green foxtail; [6]): 0 (Herbicidal rate of 5% or less (almost no effect)); P: chickweed, herbicidal effect (criteria 0-5) (chickweed; [6]): 5 (Herbicidal rate of 90% or more (almost completely withered)); F: southern crabgrass, herbicidal effect (criteria 0-5) (southern crabgrass; [6]): 0 (Herbicidal rate of 5% or less (almost no effect)); N: redroot pigweed, herbicidal effect (criteria 0-5) (redroot pigweed; [6]): 5 (Herbicidal rate of 90% or more (almost completely withered)); R: persian speedwell, herbicidal effect (criteria 0-5) (persian speedwell; [6]): 5 (Herbicidal rate of 90% or more (almost completely withered)); O: lambsquarters, herbicidal effect (criteria 0-5) (lambsquarters; [6]): 3 (Herbicidal rate of 40% or more and less than 70%); J: blackgrass, herbicidal effect (criteria 0-5) (blackgrass; [6]): 0 (Herbicidal rate of 5% or less (almost no effect)); L: windgrass, herbicidal effect (criteria 0-5) (windgrass; [6]): 0 (Herbicidal rate of 5% or less (almost no effect)); M: velvetleaf, herbicidal effect (criteria 0-5) (velvetleaf; [6]): 0 (Herbicidal rate of 5% or less (almost no effect)) |
